{"source": "paper PMC3222680", "about": "(PLoS ONE, 2011)", "key": {"[1]": {"tested_on": "α-β, β-α, αB-β and αT-β subunits expressed alone", "details": "chimeric subunits expressed alone in oocytes; data not shown", "method": "(§1) VCF experiments were performed on GlyRs expressed in Xenopus laevis oocytes. Female Xenopus laevis frogs were purchased from Xenopus Express, France. Details of oocyte preparation, GlyR expression and VCF recording are described elsewhere. Briefly, the mMessage mMachine kit (Ambion, Austin, TX) was used to generate capped mRNA. The mRNA was injected into oocytes of the female Xenopus laevis frog with 10 ng (1 ng α1 and 9 ng β or any other chimeric subunits) per oocyte. After injection, the oocytes were incubated in ND96 solution [33] for 3–4 days at 18 °C before recording.\n(§2) The sulfhydryl-reactive reagent, sulforhodamine methanethiosulfonate (MTSR, Toronto Research Chemicals, North York, Ontario, Canada), was used to label 19′C residues. […] The oocytes were then transferred to the recording chamber and perfused with ND96 solution. The current was recorded by the two-electrode voltage clamp configuration and the recording electrode was filled with 3 M KCl. Cells were voltage-clamped at −40 mV. The fluorescence was recorded using the PhotoMax 200 photodiode detection system (Dagan Corp., Minneapolis, MN)."}, "[2]": {"target": "αWT αT-β19′C GlyR (Homo sapiens, UniProt P23415+P48167, A317C/C137A/C313A/C69A/Q95A)", "sequence (P23415 29-449 isoform P23415-2 C69A)": "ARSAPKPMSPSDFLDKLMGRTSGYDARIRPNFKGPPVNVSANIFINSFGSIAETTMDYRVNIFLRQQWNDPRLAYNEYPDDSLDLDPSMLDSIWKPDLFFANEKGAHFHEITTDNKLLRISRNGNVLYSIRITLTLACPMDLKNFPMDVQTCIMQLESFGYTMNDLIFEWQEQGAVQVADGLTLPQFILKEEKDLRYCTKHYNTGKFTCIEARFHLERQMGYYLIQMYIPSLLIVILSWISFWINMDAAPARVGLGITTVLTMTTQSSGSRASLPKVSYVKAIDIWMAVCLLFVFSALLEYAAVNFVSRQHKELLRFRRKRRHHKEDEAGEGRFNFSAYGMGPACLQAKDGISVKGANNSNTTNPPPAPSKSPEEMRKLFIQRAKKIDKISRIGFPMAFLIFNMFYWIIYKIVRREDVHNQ", "sequence (P48167 23-497 with the stated changes)": "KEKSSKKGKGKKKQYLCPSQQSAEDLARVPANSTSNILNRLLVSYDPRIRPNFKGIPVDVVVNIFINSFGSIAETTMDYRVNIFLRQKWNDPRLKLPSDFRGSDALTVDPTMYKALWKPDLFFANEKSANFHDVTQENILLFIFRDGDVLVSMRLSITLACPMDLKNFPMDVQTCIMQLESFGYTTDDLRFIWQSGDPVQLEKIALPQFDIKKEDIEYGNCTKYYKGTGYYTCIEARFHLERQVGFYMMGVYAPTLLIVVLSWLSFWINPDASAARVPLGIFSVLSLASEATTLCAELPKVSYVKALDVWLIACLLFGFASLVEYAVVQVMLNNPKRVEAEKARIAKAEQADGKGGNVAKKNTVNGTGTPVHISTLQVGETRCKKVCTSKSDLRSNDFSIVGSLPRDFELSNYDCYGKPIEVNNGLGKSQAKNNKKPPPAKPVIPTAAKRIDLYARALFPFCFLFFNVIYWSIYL", "details": "MTSR-labeled, oocytes", "method": "(§3) The human GlyR α1 and β subunit cDNAs were subcloned into the pcDNA3.1zeo+ (Invitrogen) or pGEMHE [44] plasmid vectors for expression in HEK293 cells or Xenopus oocytes, respectively. Site-directed mutagenesis and chimera construction were performed using the QuickChange (Stratagene, La Jolla, CA, USA) mutagenesis and multiple-template-based sequential PCR protocols, respectively.\n(§4) For the VCF experiments, both GlyR α1 and β subunit cDNAs in the pGEMHE vector were mutated to substitute non-essential background cysteines with alanines, including α1C41A and βC115AC291A [46], [47].\nas §1, §2\n(§5) Results are expressed as mean±standard error of the mean of three or more independent experiments. […] Statistical significance was determined using the Student's t-test."}, "[3]": {"target": "αWT β19′C GlyR (Homo sapiens, UniProt P23415+P48167, A317C/C137A/C313A/C69A)", "sequence (P23415 29-449 isoform P23415-2 C69A)": "as the sequence (P23415 29-449 isoform P23415-2 C69A) above", "sequence (P48167 23-497 C137A/C313A/A317C)": "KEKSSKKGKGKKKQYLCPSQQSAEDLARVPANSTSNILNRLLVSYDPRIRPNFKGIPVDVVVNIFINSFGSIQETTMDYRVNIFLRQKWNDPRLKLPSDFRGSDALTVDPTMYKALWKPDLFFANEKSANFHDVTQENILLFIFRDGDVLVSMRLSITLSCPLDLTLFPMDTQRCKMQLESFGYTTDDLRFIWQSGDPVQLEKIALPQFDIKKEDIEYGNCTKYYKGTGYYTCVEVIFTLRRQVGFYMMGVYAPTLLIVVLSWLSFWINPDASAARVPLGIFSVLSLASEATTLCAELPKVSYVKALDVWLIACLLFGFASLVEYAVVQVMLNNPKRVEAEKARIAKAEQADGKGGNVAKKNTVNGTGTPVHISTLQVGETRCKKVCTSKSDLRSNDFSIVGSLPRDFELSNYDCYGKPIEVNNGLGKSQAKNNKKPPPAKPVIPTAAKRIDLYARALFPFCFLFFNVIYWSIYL", "details": "MTSR-labeled, oocytes", "method": "as §3, §4, §1, §2, §5"}, "[4]": {"target": "αWT αB-β19′C GlyR (Homo sapiens, UniProt P23415+P48167, A80Q/C69A)", "sequence (P23415 29-449 isoform P23415-2 C69A)": "as the sequence (P23415 29-449 isoform P23415-2 C69A) above", "sequence (P23415+P48167 fused with the stated changes)": "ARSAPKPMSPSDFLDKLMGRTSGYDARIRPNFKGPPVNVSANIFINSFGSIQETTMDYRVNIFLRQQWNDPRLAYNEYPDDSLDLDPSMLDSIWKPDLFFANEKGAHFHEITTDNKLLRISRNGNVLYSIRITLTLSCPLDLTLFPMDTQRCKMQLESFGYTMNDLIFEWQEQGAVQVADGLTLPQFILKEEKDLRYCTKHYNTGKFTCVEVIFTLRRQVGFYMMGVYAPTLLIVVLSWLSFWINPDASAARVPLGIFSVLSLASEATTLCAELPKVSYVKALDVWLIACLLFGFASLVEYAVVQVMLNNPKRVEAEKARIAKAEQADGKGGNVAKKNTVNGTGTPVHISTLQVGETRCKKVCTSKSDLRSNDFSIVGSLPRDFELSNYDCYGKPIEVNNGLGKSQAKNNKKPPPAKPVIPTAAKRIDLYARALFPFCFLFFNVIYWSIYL", "details": "MTSR-labeled, oocytes", "method": "as §3, §4, §1, §2, §5"}, "[5]": {"target": "αWT α-β19′C GlyR (Homo sapiens, UniProt P23415+P48167, C69A)", "sequence (P23415 29-449 isoform P23415-2 C69A)": "as the sequence (P23415 29-449 isoform P23415-2 C69A) above", "sequence (P23415+P48167 fused with the stated changes)": "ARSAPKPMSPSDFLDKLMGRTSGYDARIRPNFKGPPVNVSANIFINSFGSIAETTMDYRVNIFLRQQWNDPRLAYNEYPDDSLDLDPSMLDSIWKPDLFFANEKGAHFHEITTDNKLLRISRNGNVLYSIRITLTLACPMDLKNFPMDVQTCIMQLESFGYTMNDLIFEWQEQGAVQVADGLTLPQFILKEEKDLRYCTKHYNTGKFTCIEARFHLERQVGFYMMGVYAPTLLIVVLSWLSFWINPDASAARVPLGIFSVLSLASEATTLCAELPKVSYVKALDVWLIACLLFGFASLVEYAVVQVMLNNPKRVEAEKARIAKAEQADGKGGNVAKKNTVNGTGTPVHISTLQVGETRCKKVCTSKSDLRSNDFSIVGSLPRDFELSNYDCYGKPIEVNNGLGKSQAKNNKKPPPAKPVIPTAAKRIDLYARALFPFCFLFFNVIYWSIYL", "details": "MTSR-labeled, oocytes", "method": "as §3, §4, §1, §2, §5"}, "[6]": {"target": "αWT β-α19′C GlyR (Homo sapiens, UniProt P23415+P48167, C137A/C69A/R299C)", "sequence (P23415 29-449 isoform P23415-2 C69A)": "as the sequence (P23415 29-449 isoform P23415-2 C69A) above", "sequence (P48167+P23415 fused with the stated changes)": "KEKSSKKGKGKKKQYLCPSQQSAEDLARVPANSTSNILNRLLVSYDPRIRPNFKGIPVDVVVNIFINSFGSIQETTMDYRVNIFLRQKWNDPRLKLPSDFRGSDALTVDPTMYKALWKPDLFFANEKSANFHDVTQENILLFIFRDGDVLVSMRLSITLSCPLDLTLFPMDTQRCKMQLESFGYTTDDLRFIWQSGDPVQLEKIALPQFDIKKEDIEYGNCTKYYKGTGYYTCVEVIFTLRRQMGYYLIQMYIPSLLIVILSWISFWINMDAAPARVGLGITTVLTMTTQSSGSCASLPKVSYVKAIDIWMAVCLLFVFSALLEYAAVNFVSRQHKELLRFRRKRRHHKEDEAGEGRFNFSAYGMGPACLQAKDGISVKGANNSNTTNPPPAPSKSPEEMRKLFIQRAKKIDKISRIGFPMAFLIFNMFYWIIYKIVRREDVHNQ", "details": "MTSR-labeled, oocytes", "method": "as §3, §4, §1, §2, §5"}, "[7]": {"target": "α19′C βWT GlyR (Homo sapiens, UniProt P23415+P48167, C137A/C313A/C69A/R299C)", "sequence (P23415 29-449 isoform P23415-2 C69A/R299C limits assumed)": "as the sequence (P23415 29-449 isoform P23415-2 C69A) above, with R271C counted along it", "sequence (P48167 23-497 C137A/C313A)": "as the sequence (P48167 23-497 C137A/C313A/A317C) above, with C295A counted along it", "details": "MTSR-labeled, oocytes", "method": "as §3, §4, §1, §2, §5"}, "[8]": {"target": "homomeric α1Y27′A GlyR (Homo sapiens, UniProt P23415, Y307A)", "sequence (P23415 29-457 Y307A)": "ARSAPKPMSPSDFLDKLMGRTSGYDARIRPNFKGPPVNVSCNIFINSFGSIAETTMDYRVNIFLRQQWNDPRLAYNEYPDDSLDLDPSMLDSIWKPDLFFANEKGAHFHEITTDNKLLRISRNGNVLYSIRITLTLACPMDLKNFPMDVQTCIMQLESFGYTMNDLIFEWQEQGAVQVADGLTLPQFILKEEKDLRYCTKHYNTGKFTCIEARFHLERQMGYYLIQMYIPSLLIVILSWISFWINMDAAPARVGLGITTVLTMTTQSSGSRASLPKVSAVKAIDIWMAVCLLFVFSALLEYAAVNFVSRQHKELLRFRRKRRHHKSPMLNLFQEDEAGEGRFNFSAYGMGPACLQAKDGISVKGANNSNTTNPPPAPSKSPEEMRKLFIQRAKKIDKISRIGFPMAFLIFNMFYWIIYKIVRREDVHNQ", "details": "HEK293", "method": "as §3\nThe effects of the hyperekplexia-mimicking mutations, K24′A, V25′A and Y27′A, were examined on GlyRs expressed in HEK293 cells (ATCC). Details of the HEK293 cell culture, GlyR expression and electrophysiological recording of the HEK293 cells are described elsewhere. Briefly, HEK293 cells were maintained in DMEM supplemented with 10% fetal bovine serum. Cells were transfected using a calcium phosphate precipitation protocol. When co-transfecting the α1 together with the β or any other chimera subunits, their respective cDNAs were combined in a ratio of 1∶10. In addition, the pEGFP-N1 (Clontech) was co-transfected to facilitate identifying the transfected cells. […] Cells were treated with external Ringer's solution and internal CsCl solution [30]. Cells were voltage-clamped at −40 mV. When the heteromeric GlyRs were expressed, the picrotoxin sensitivity was tested to confirm that the majority of receptors are heteromers, [30]."}}, "data": [{"compound": "NCC(=O)O", "note": "[glycine]", "values": [{"measurement": "glycine-induced current and fluorescence changes", "setting": "[1]", "value": "neither glycine-induced current nor fluorescence changes could be detected"}, {"measurement": "Current Imax", "setting": "[2]", "value": "2.19±0.20", "unit": "µA"}, {"measurement": "Current nH", "setting": "[2]", "value": "1.45±0.06"}, {"measurement": "Fluorescence Fmax", "setting": "[2]", "value": "11.5±0.6", "unit": "%"}, {"measurement": "Fluorescence nH", "setting": "[2]", "value": "2.31±0.06"}, {"measurement": "Current Imax", "setting": "[3]", "value": "2.46±0.19", "unit": "µA"}, {"measurement": "Current nH", "setting": "[3]", "value": "2.73±0.38"}, {"measurement": "Fluorescence Fmax", "setting": "[3]", "value": "7.58±0.84", "unit": "%"}, {"measurement": "Fluorescence nH", "setting": "[3]", "value": "1.47±0.12"}, {"measurement": "Current Imax", "setting": "[4]", "value": "2.57±0.14", "unit": "µA"}, {"measurement": "Current nH", "setting": "[4]", "value": "2.11±0.11"}, {"measurement": "Fluorescence Fmax", "setting": "[4]", "value": "8.52±1.07", "unit": "%"}, {"measurement": "Fluorescence nH", "setting": "[4]", "value": "1.19±0.12"}, {"measurement": "Current Imax", "setting": "[5]", "value": "1.53±0.09", "unit": "µA"}, {"measurement": "Current nH", "setting": "[5]", "value": "2.36±0.32"}, {"measurement": "Fluorescence Fmax", "setting": "[5]", "value": "6.58±1.17", "unit": "%"}, {"measurement": "Fluorescence nH", "setting": "[5]", "value": "2.10±0.13"}, {"measurement": "Current Imax", "setting": "[6]", "value": "3.19±0.08", "unit": "µA"}, {"measurement": "Current nH", "setting": "[6]", "value": "2.26±0.11"}, {"measurement": "Fluorescence Fmax", "setting": "[6]", "value": "3.86±0.37", "unit": "%"}, {"measurement": "Fluorescence nH", "setting": "[6]", "value": "1.15±0.05"}, {"measurement": "Current Imax", "setting": "[7]", "value": "3.51±0.24", "unit": "µA"}, {"measurement": "Current nH", "setting": "[7]", "value": "1.20±0.16"}, {"measurement": "Fluorescence Fmax", "setting": "[7]", "value": "9.42±0.53", "unit": "%"}, {"measurement": "Fluorescence nH", "setting": "[7]", "value": "0.97±0.04"}, {"measurement": "glycine-induced current", "setting": "[8]", "value": "no glycine-induced current was detected"}]}]}
